From patent US20100068150A1, “Selective Caspase Inhibitors” (The Board of Trustees of the Leland Stanford Junior …, priority 2006, published 2010)

Assays:
[1] = target: T1, caspase-3 (Mus musculus, UniProt P70677); test: In vivo labeling of caspase-3 in the thymus of dexamethazone treated mice; conditions: dexamethazone 40 mg/kg IP, probe by tail vein after 12 or 24 hrs, 3 hrs circulation
T1 construct: from tissue; host or cells: thymus of Balb-c mice
T1 sequence (P70677 29-175 limits assumed): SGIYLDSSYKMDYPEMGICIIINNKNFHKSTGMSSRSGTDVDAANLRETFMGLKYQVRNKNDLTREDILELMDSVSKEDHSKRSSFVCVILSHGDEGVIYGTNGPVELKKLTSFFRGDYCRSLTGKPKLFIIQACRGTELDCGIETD
T1 sequence (P70677 176-277 limits assumed): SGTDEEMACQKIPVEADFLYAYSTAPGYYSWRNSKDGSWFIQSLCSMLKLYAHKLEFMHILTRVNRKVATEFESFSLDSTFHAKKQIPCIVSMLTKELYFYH
From the text: The following example utilizes dexamethazone-induced apoptosis in the thymus. See, Cristina et al., “Dexamethasone-induced apoptosis of thymocytes: role of glucocorticoid receptor-associated Src kinase and caspase-8 activation,” prepublished online as a Blood First Edition Paper on Aug. 29, 2002; DOI 10.1182/blood-2002-06-1779. This is a particularly simple model that allows one to activate apoptosis specifically in the thymus by injection of normal mice with low doses of dexamethazone. […] Also, one can monitor changes in activation of caspases with time after induction of apoptosis.
Wild Type Balb-c mice were injected with dexamethazone (40 mg/kg) by IP injection. After 12 or 24 hrs the general caspase probe AB50 was injected by tail vein and the probe allowed to circulate for 3 hrs, at which time tissues from thymus, lung, liver, and kidney were collected. We removed the thymus, kidney and lung and imaged the whole organs using the IVIS2000 system. The tissues were then analyzed by SDS-PAGE and fluorescent scanning of the gels. For comparison we monitored the levels of cleaved, active caspase-3 using a specific antibody. […] An antibody against actin was used as a loading control.

[2] = test system: cathepsin B and legumain; test: In vivo labeling of cathepsin B and legumain in kidney and spleen of normal mice; conditions: intravenous, tissues collected 2 hrs after injection
Description: The present selective caspase inhibitors may be used for in vivo imaging. Cy5-fluorescent labeled versions of AB46 and AB50 were injected into normal mice and labeling of cathepsins and legumain in kidney and spleen was monitored (FIG. 14).
Normal mice were intravenously injected with the probes and tissues were collected 2 hrs after injection. Tissues were homogenized and total protein samples were analyzed by SDS-PAGE followed by scanning of the gel using a fluorescent scanner.

Cc1cccc(C)c1C(=O)OCC(=O)[C@H](CC(=O)O)NC(=O)C1CCCN1C(=O)[C@@H](CCC(=O)O)NC(=O)Cc1ccc(O)c([N+](=O)[O-])c1 (stereo partly drawn) [AB50, NP-E-P- D-AOMK]
in vivo labeling of caspase-3 in thymus [1]: Bands can be clearly seen at the caspase-3 estimated MW
in vivo labeling in kidney and spleen [2]: only labeled legumain
